Experimental data published in patent publication US9682130B2 (priority 2015, dated 2017).
≈ marks a conversion by molar mass, not a printed value. Where two headings read alike, the source gives them in different places.

How the values were obtained:
Adenovirus serotype Ad5 = assay: Ad5/NZW rabbit ocular replication model, plaque assay of ocular samples; type: in vivo; settings: 0.5% Cidofovir, twice daily 7 days
Description: See, e.g., Romanowski, et al., The In Vitro and In Vivo Evaluation of ddC as a Topical Antiviral for Ocular Adenovirus Infections, Invest. Ophthalmol. Vis. Sci. 50: 5295-5299 (2009), which is hereby incorporated by reference in its entirety.
(§1) To conduct this in vivo assay, 25 NZW rabbit were anesthetized using the general anesthesia ketamine and xylazine and the topical anesthesia proparacaine. Each rabbit was then topically inoculated with 50 μL of Adenovirus serotype Ad5 (3×10^7 pfu/mL) in both eyes after corneal epithelial scarification (12 cross-hatched strokes of a 25 sterile needle). Eyes were closed and gently rubbed for 5 seconds to ensure contact of the virus on all ocular surfaces. […] All topical solutions (37 μL drops) were instilled with an electronic pipette (EDP; Rainin, Oakland, Calif.) set in the multi-dispense mode. Ocular swabbing to recover adenovirus from tear film and corneal and conjunctival surfaces, after topical anesthesia with proparacaine, was performed at least 1 hour after the final dose on days 0, 1, 3, 4, 5, 7, 9, 11, and 14 after inoculation. The ocular samples from each eye was placed individually into tubes containing 1 mL of medium and were frozen at −70° C. pending viral plaque assay.
The ocular samples were assayed for Ad5 titers by performing a plaque reduction assay. Samples were diluted 1:10 and these dilutions were inoculated onto duplicate wells of a 24 well multi-plate containing A549 monolayers. The virus was adsorbed for 3 hours at 37° C. in a 5% CO2-water vapor atmosphere without constant rocking. After adsorption, 1 mL of medium plus 0.5% methylcellulose was added to each well, and the plates were incubated at 37° C. in a 5% CO2-water vapor atmosphere. After 7 days, the cells were stained with 0.5% gentian violet, and the number of plaques counted using a dissecting microscope (25×). The viral titers were then calculated, and will be expressed as plaque-forming units per milliliter (PFU/mL). Data from the study were analyzed using analysis of variance (ANOVA) with Fisher's pair-wise comparisons and X^2 analyses using True Epistat and/or Minitab statistical software. Significance was established at the P≦0.05 confidence level.

[1] = Eye irritation, Draize scale (MMTS), Ad5/NZW rabbit ocular model; type: in vivo; settings: NZW, rabbit, in vivo
Description: as §1, with “surfaces. Inoculation of both eyes allowed for the reduction in the number of animals needed without jeopardizing statistical validity.” for “surfaces.”
The animals were assayed for eye irritation using a Draize scale for ocular lesions. Classification of eye irritation was evaluated for both eyes of each rabbit on day 3 and day 9 using the maximum mean total score (MMTS; Table 4). See, e.g., Kay and Calandra, Interpretation of Eye Irritation Tests, J. Soc. Cos. Chem. 13: 281-289 (1962), the content of which is hereby incorporated by reference in its entirety. The MMTS score used was as follows: 0.0-0.5, Non-Irritating (N); 0.6-2.5, Practically Non-Irritating (PN); 2.6-15.0, Minimally Irritating (M1); 15.1-25.0, Mildly Irritating (M2); 25.1-50.0, Moderately Irritating (M3); 50.1-80.0, Severely Irritating (S); 80.1-100.0, Extremely Irritating (E); and 100.1-110.0, Maximally Irritating (Mx).

MA-104 cells = settings: African green monkey
[2] = system: Human Adenovirus 8 (Ad8 strain 13306); assay: CPE reduction assay, Adenovirus 8; type: cell-based; settings: MA104; Adenovirus 8, MA-104 cells
Description: (§2) To assess in vitro cytotoxicity, both a cytopathic effects of a virus (CPE) regression assay and a neutral red lysosomal uptake cell viability assay was performed essentially as described in, e.g., Repetto, et al., Neutral Red Uptake Assay for the Estimation of Cell Viability/Cytotoxicity, Nat. Protoc. 3: 1125-1131 (2008), the content of which is hereby incorporated by reference in its entirety. Ninety-six-well plates were seeded with MA-104 cells at 1×10^5 cells/mL and incubated overnight at 37° C. with 5% CO2. […] Each dilution was added to 5 wells of a 96-well plate with 80% to 100% confluent cells, and three wells of each dilution were then infected with one of the two test viruses. Two wells remained uninfected as controls for toxicity. Six wells per plate were set aside as uninfected, untreated cell controls, and six wells per plate were infected with no treatment as virus controls. […] Assay plates were incubated at 37° C. with 5% CO2. […] After CPE reduction assay was completed, a neutral red lysosomal uptake assay was conducted by filling each well with 0.011% (m/v) neutral red, a vital stain. The plates then were incubated for about 2 hours at 37° C. in the dark. […] The plates were then read on a spectrophotometer at 540 nm to quantify the neutral red taken up by the healthy cells. […]

[3] = system: Human Adenovirus 5 (AD5 strain NYS #98-1836); assay: microbe, parasite or virus in culture; type: cell-based; settings: Human mastadenovirus C, MA104, Adenovirus 5, MA-104 cells
Description: To assess in vitro cytotoxicity, both a cytopathic effects of a virus (CPE) regression assay and a neutral red lysosomal uptake cell viability assay was performed essentially as described in, e.g., Repetto, et al., Neutral Red Uptake Assay for the Estimation of Cell Viability/Cytotoxicity, Nat. Protoc. 3: 1125-1131 (2008), the content of which is hereby incorporated by reference in its entirety. Ninety-six-well plates were seeded with MA-104 cells at 1×10^5 cells/mL and incubated overnight at 37° C. with 5% CO2. […] Each dilution was added to 5 wells of a 96-well plate with 80% to 100% confluent cells, and three wells of each dilution were then infected with one of the two test viruses. Two wells remained uninfected as controls for toxicity. Six wells per plate were set aside as uninfected, untreated cell controls, and six wells per plate were infected with no treatment as virus controls. […] Assay plates were incubated at 37° C. with 5% CO2. […] After CPE reduction assay was completed, a neutral red lysosomal uptake assay was conducted by filling each well with 0.011% (m/v) neutral red, a vital stain. The plates then were incubated for about 2 hours at 37° C. in the dark. The unincorporated neutral red solution was removed from the wells and the incorporated dye was then eluted by adding Sorensen's citrate-buffered ethanol. The plates were then read on a spectrophotometer at 540 nm to quantify the neutral red taken up by the healthy cells. The optical density of test wells was converted to percent of cell control and normalized to the virus controls.
The concentration of test compound required to inhibit CPE by 50% or reduce red uptake into cells by 50% (EC50) was calculated by regression analysis. The toxicity of the compound without virus present was similarly calculated using the uninfected wells treated with test compounds compared with untreated cell controls. The concentration of compound that would cause 50% cytotoxic effects in the absence of virus (CC50) was estimated by linear regression analysis. The selectivity index (SI) is the CC50 divided by EC50.

[4] = system: Human Adenovirus 8 (Ad8 strain 13306); assay: Neutral red lysosomal uptake assay, Adenovirus 8; type: cell-based; settings: MA104; Adenovirus 8, MA-104 cells
Description: as §2

in vitro = settings: African green monkey

With `Nc1ccn(C[C@@H](CO)OCP(=O)(O)O)c(=O)n1` [CDV, Cidofovir, reference compound] the “Ad5-positive ocular samples, percent, Day 1” value (Adenovirus serotype Ad5) was 100%, the “Ad5-positive ocular samples, percent, Day 3” value (Adenovirus serotype Ad5) was 100% and the “Ad5-positive ocular samples, percent, Day 4” value (Adenovirus serotype Ad5) was 100%. For the same molecule, the “Ad5-positive ocular samples, percent, Day 5” value (Adenovirus serotype Ad5) was 100%, the “Ad5-positive ocular samples, percent, Day 7” value (Adenovirus serotype Ad5) was 63% and the “Ad5-positive ocular samples, percent, Day 11” value (Adenovirus serotype Ad5) was 0%. The “Ad5-positive ocular samples, percent, Day 14” value (Adenovirus serotype Ad5) was 0%, the “Ad5-positive ocular samples, percent, Total” value (Adenovirus serotype Ad5) was 66.1% and the “Ad5-positive ocular samples/total eyes, Day 1” value (Adenovirus serotype Ad5) was 8/8. The “Ad5-positive ocular samples/total eyes, Day 3” value (Adenovirus serotype Ad5) was 8/8, the “Ad5-positive ocular samples/total eyes, Day 4” value (Adenovirus serotype Ad5) was 8/8 and the “Ad5-positive ocular samples/total eyes, Day 5” value (Adenovirus serotype Ad5) was 8/8. The “Ad5-positive ocular samples/total eyes, Day 7” value (Adenovirus serotype Ad5) was 5/8, the “Ad5-positive ocular samples/total eyes, Day 11” value (Adenovirus serotype Ad5) was 0/8 and the “Ad5-positive ocular samples/total eyes, Day 14” value (Adenovirus serotype Ad5) was 0/8. For the same molecule, the “Ad5-positive ocular samples/total eyes, Total” value (Adenovirus serotype Ad5) was 37/56, the “Ocular irritation MMTS score, Day 3” value ([1]; 3 day) was 5.9 and the “Ocular irritation MMTS score, Day 9” value ([1]; 9 day) was 27.5.
In the case of `Nc1ccn([C@H]2CC[C@@H](CO)O2)c(=O)n1` [ddC, 2′, 3′-Dideoxycytidine], the “CPE Reduction Assay CC50” value (MA-104 cells) is reported as less than 5000 µg/mL, the “Neutral Red Assay CC50” value (MA-104 cells) is reported as less than 5000 µg/mL and the EC50 [2] is reported as 2.1 µg/mL (≈ 9.94 µM). The EC50 ([3]; read-out: CPE Reduction Assay EC50) was 2.1 µg/mL (≈ 9.94 µM), the EC50 ([3]; read-out: Neutral Red Assay EC50) was 2.7 µg/mL (≈ 12.8 µM) and the EC50 [4] was 2.7 µg/mL (≈ 12.8 µM). For the same molecule, the CC50 (in vitro) was less than 5000 µg/mL.
